Measured values: patent publication US12338220B2, “Antiviral pyrazolopiridinone compounds” (Novartis AG, priority 2019, dated 2025)
Read-outs that look alike come from different tables or passages of the source.

What was measured:
CMV-polymerase = CMV-polymerase (Human cytomegalovirus (strain AD169) (HHV-5) (Human herpesvirus 5), UniProt P08546); assay: biochemical; conditions: read-out: CMV-polymerase Biochemical IC50
CMV = assay: microbe, parasite or virus in culture; type: cell-based
[1] = Human betaherpesvirus 5, 72 h, read-out: CMV-Luc Cellular EC50, NN-NHDF cells, MOI 1, 72 hrs
[2] = NN-NHDF cells, MOI 1, 72 hrs, read-out: CMV-Luc Cellular EC50

Row | Compound | EC50 (CMV; [1]) [µM] | other results
1 | CC1Cc2c(C(=O)NCc3ccc(C#N)cc3)nn(C)c2C(=O)N1CC1(S(C)(=O)=O)CC1 (single isomer, unassigned) [Example 41, (R)- or (S)-N-(4-cyanobenzyl)-1,5-dimethyl-6-((1-(methylsulfonyl)cyclopropyl)methyl)-7-oxo-4,5,6,7-tetrahydro-1H-pyrazolo[3,4-c]pyridine-3-carboxamide] | – | IC50 (CMV-polymerase): 9.77 µM
2 | CC(N)COCC(C)(C)S(=O)(=O)C1(CN2CCc3c(C(=O)NCc4ccc(Cl)cc4)nn(C)c3C2=O)CC1 (single isomer, unassigned) [Example 97, (R)- or (S)-6-((1-((1-(2-Aminopropoxy)-2-methylpropan-2-yl)sulfonyl)cyclopropyl)methyl)-N-(4-chlorobenzyl)-1-methyl-7-oxo-4,5,6,7-tetrahydro-1H-pyrazolo[3,4-c]pyridine-3-carboxamide] | 0.008 | –
3 | CC(N)COCC(C)(C)S(=O)(=O)C1(CN2CCc3c(C(=O)NCc4ccc(Cl)cc4)nn(C)c3C2=O)CC1 (single isomer, unassigned) [Example 98, (R)- or (S)-6-((1-((1-(2-Aminopropoxy)-2-methylpropan-2-yl)sulfonyl)cyclopropyl)methyl)-N-(4-chlorobenzyl)-1-methyl-7-oxo-4,5,6,7-tetrahydro-1H-pyrazolo[3,4-c]pyridine-3-carboxamide] | – | EC50 (CMV; read-out: CMV-Luc Cellular EC50, NN-NHDF cells, MOI 1, 72 hrs): 0.008 µM
4 | CC(N)COCC(C)(C)S(=O)(=O)C1(CN2CCc3c(C(=O)NCc4ccc(C#N)cc4)nn(C)c3C2=O)CC1 (single isomer, unassigned) [Example 99, (R)- or (S)-6-((1-((1-(2-Aminopropoxy)-2-methylpropan-2-yl)sulfonyl)cyclopropyl)methyl)-N-(4-cyanobenzyl)-1-methyl-7-oxo-4,5,6,7-tetrahydro-1H-pyrazolo[3,4-c]pyridine-3-carboxamide] | 0.014 | –
5 | Cn1nc(C(=O)NCc2ccc(C#N)cc2)c2c1C(=O)N(CC1(S(=O)(=O)N3CCC(C)(O)C3)CC1)CC2 (single isomer, unassigned) [Example 131, (R)- or (S)-N-(4-Cyanobenzyl)-6-((1-((3-hydroxy-3-methylpyrrolidin-1-yl)sulfonyl)cyclopropyl)methyl)-1-methyl-7-oxo-4,5,6,7-tetrahydro-1H-pyrazolo[3,4-c]pyridine-3-carboxamide] | – | IC50 (CMV-polymerase): 0.016 µM
6 | Cn1nc(C(=O)NCc2ccc(C#N)cc2)c2c1C(=O)N(CC1(S(=O)(=O)C3CCOC3)CC1)CC2 (single isomer, unassigned) [Example 170, (R)- or (S)-N-(4-Cyanobenzyl)-1-methyl-7-oxo-6-((1-((tetrahydrofuran-3-yl)sulfonyl)cyclopropyl)methyl)-4,5,6,7-tetrahydro-1H-pyrazolo[3,4-c]pyridine-3-carboxamide] | 0.124 | –
7 | Cn1nc(C(=O)NCc2ccc(C#N)cc2)c2c1C(=O)N(CC1(S(=O)(=O)C(C)(CN)CO)CC1)CC2 (single isomer, unassigned) [Example 184, (R)- or (S)-6-((1-((1-Amino-3-hydroxy-2-methylpropan-2-yl)sulfonyl)cyclopropyl)methyl)-N-(4-cyanobenzyl)-1-methyl-7-oxo-4,5,6,7-tetrahydro-1H-pyrazolo[3,4-c]pyridine-3-carboxamide] | 0.165 | –
8 | Cn1nc(C(=O)NCc2ccc(C#N)cc2)c2c1C(=O)N(CC1(S(=O)(=O)C(C)(C)C(O)CN)CC1)CC2 (single isomer, unassigned) [Example 199, (R)- or (S)-6-((1-((4-Amino-3-hydroxy-2-methylbutan-2-yl)sulfonyl)cyclopropyl)methyl)-N-(4-cyanobenzyl)-1-methyl-7-oxo-4,5,6,7-tetrahydro-1H-pyrazolo[3,4-c]pyridine-3-carboxamide] | 0.019 | EC50 (CMV; Human betaherpesvirus 5, read-out: Cellular activity against CMV (EC50), Table 18): 0.018 µM
9 | CNCC(O)C(C)(C)S(=O)(=O)C1(CN2CCc3c(C(=O)NCc4ccc(C#N)cc4)nn(C)c3C2=O)CC1 (single isomer, unassigned) [Example 202, (R)- or (S)-N-(4-Cyanobenzyl)-6-((1-((3-hydroxy-2-methyl-4-(methylamino)butan-2-yl)sulfonyl)cyclopropyl)methyl)-1-methyl-7-oxo-4,5,6,7-tetrahydro-1 H-pyrazolo[3,4-c]pyridine-3-carboxamide] | 0.03 | –
10 | CNCC(O)C(C)(C)S(=O)(=O)C1(CN2CCc3c(C(=O)NCc4ccc(Cl)cc4)nn(C)c3C2=O)CC1 (single isomer, unassigned) [Example 204, (R)- or (S)-N-(4-Chlorobenzyl)-6-((1-((3-hydroxy-2-methyl-4-(methylamino)butan-2-yl)sulfonyl)cyclopropyl)methyl)-1-methyl-7-oxo-4,5,6,7-tetrahydro-1 H-pyrazolo[3,4-c]pyridine-3-carboxamide] | 0.011 | –
11 | CN(C)CC(O)C(C)(C)S(=O)(=O)C1(CN2CCc3c(C(=O)NCc4ccc(Cl)cc4)nn(C)c3C2=O)CC1 (single isomer, unassigned) [Example 206, (R)- or (S)-N-(4-Chlorobenzyl)-6-((1-((4-(dimethylamino)-3-hydroxy-2-methylbutan-2-yl)sulfonyl)cyclopropyl)methyl)-1-methyl-7-oxo-4,5,6,7-tetrahydro-1H-pyrazolo[3,4-c]pyridine-3-carboxamide] | 0.071 | –
12 | Cn1nc(C(=O)OCc2ccc(C#N)cc2)c2c1C(=O)N(CC1(S(=O)(=O)C3CC3)CC1)CC2 [Example 24, 4-cyanobenzyl 6-((1-(cyclopropylsulfonyl)cyclopropyl)methyl)-1-methyl-7-oxo-4,5,6,7-tetrahydro-1H-pyrazolo[3,4-c]pyridine-3-carboxylate] | 0.197 | –
13 | N#Cc1ccc(CNC(=O)c2n[nH]c3c2CCN(CC2(S(=O)(=O)C4CC4)CC2)C3=O)cc1 [Example 45, N-(4-Cyanobenzyl)-6-((1-(cyclopropylsulfonyl)cyclopropyl)methyl)-7-oxo-4,5,6,7-tetrahydro-1H-pyrazolo[3,4-c]pyridine-3-carboxamide] | – | EC50 (CMV; [2]): 0.146 µM
14 | Cn1nc(C(=O)NCc2ccc(C#N)cc2)c2c1C(=O)N(CC1(S(=O)(=O)C(C)(C)COCCO)CC1)CC2 [Example 87, N-(4-Cyanobenzyl)-6-((1-((1-(2-hydroxyethoxy)-2-methylpropan-2-yl)sulfonyl)cyclopropyl)methyl)-1-methyl-7-oxo-4,5,6,7-tetrahydro-1H-pyrazolo[3,4-c]pyridine-3-carboxamide] | – | EC50 (CMV; [2]): 0.044 µM
15 | CN(C(C)(CO)CO)S(=O)(=O)C1(CN2CCc3c(C(=O)NCc4ccc(Cl)cc4)nn(C)c3C2=O)CC1 [Example 154, N-(4-chlorobenzyl)-6-((1-(N-(1,3-dihydroxy-2-methylpropan-2-yl)-N-methylsulfamoyl)cyclopropyl)methyl)-1-methyl-7-oxo-4,5,6,7-tetrahydro-1H-pyrazolo[3,4-c]pyridine-3-carboxamide] | 0.083 | –
16 | Cn1nc(C(=O)NCc2ccc(Cl)cc2)c2c1C(=O)N(CC1(S(=O)(=O)C(C)(CN)CO)CC1)CC2 (centres unmarked) [Example 186, 6-((1-((1-Amino-3-hydroxy-2-methylpropan-2-yl)sulfonyl)cyclopropyl)methyl)-N-(4-chlorobenzyl)-1-methyl-7-oxo-4,5,6,7-tetrahydro-1H-pyrazolo[3,4-c]pyridine-3-carboxamide] | – | EC50 (CMV; Human betaherpesvirus 5, 72 h, NN-NHDF cells, MOI 1, 72 hrs, read-out: CMV-Luc Cellular EC50): 0.09 µM
